The data set is described as follows: Determination of plasma exposure of test compounds in rats (LC/MS of plasma after oral dosing). The class given is in vivo, rat (male F-344). Particulars: for AUC / Cmax / Tmax: male, F-344, rat, rats, oral administration of a 30 mg/kg dose; for AUC: n = 3, read-out: AUC (area under the curve); for Cmax: n = 3, read-out: Cmax (maximum concentration of test compound); for Tmax: n = 3, read-out: tmax (time at which maximum concentration resulted); for concentration at 0.5 h / concentration at 1 h / concentration at 2 h / concentration at 6 h: rat, male F-344 rats, 30 mg/kg oral by gavage, suspension, n = 3. As to the method:
General Procedure for Determination of Plasma Exposure of Test Compounds in Rats
Each compound was administered as a suspension in a vehicle consisting of 5% ethanol, 95% of a mixture of 0.5% each Polysorbate 80/sodium carboxymethylcellulose in water. Three male F-344 rats were dosed orally at 30 mg/kg by gavage and blood collected by orbital venapuncture under isoflurane anesthesia at 0.5, 1, and 2 hours after dosing into sodium heparinized containers. The final 6 hour timepoint was collected by cardiac puncture into sodium heparinized containers. Plasma was collected after brief centrifugation and frozen at −70° C. until assay. Plasma samples were assayed by LC/MS using standards prepared by spiking plasma with the compound of interest.

Consider `CC(CNS(=O)(=O)C(C)C)c1ccc(NC(=O)c2ccc(F)cc2F)cc1` (centres unmarked) [Compound A, N-[4-(1-methyl-2-{[(methylethyl)sulfonyl]amino}ethyl)phenyl](2,4-difluorophenyl)carboxamide], for which the AUC is 1440 ± 227 ng·h/mL, the Cmax is 473 ng/mL, the Tmax came out at 30 min and the concentration at 0.5 h amounted to 473 ± 100 ng/mL. The compound further showed a concentration at 1 h of 333 ± 53 ng/mL, a concentration at 2 h of 329 ± 62 ng/mL and a concentration at 6 h of 67 ± 17 ng/mL.
In the case of `CC(C)S(=O)(=O)NC[C@H](C)c1ccc(NC(=O)c2cc(F)cc(F)c2)cc1` [Compound B, N-[4-((1R)-1-methyl-2-{[(methylethyl)sulfonyl]amino}ethyl)phenyl](3,5-difluorophenyl)carboxamide], the AUC was 5596 ± 14 ng·h/mL, the Cmax amounted to 1490 ng/mL, the Tmax amounted to 30 min and the concentration at 0.5 h was found to be 1491 ± 12 ng/mL. The compound also returned a concentration at 1 h of 1170 ± 134 ng/mL, a concentration at 2 h of 1040 ± 62 ng/mL and a concentration at 6 h of 693 ± 136 ng/mL.

By AUC is commonly meant concentration integrated over time.

Values taken from patent publication US6803484B2, “Sulfonamide derivatives” (Eli Lilly and Company, priority 2000, dated 2004).
